Results: patent publication US20100311643A1, “USE OF GLP-1 AS A THERAPEUTIC AGENT” (priority 2007, published 2010)

What was measured:
HIV-1IIIB = test: HIV-1 antiviral assay (CPE reduction, MTS staining); assay type: cell-based; conditions: test peptide 10 micrograms per ml; 6 days post-infection; triplicate
Pseudomonas aeruginosa = assay type: cell-based; conditions: 5 micrograms per ml
Streptococcus pneumoniae = assay type: cell-based; conditions: 5 micrograms per ml
MRSA = conditions: 5 micrograms per ml
in vitro [1] = conditions: human, MRC-5 cells (embryonal lung fibroblasts)
[2] = Cytotoxicity in the HBV assay (dye uptake cell viability); conditions: human
in vitro [3] = conditions: human, CEM-SS cells (uninfected, cells plus peptide only)

SMILES | % CPE reduction in HIV-1 infected CEM-SS cells (HIV-1IIIB) | % inhibition (Pseudomonas aeruginosa) | % inhibition (Streptococcus pneumoniae) | % inhibition (MRSA) | viability at 144 h (in vitro [1]) | viability at 144 h, 10 micrograms per ml [2] | viability at 10 micrograms per ml (in vitro [3])
Cc1cn([C@H]2C[C@H](N=[N+]=[N-])[C@@H](CO)O2)c(=O)[nH]c1=O [AZT] | 99% | – | – | – | – | – | –
CC[C@H](C)[C@H](NC(=O)[C@H](Cc1ccccc1)NC(=O)[C@H](CCC(=O)O)NC(=O)[C@H](CCCCN)NC(=O)[C@H](C)NC(=O)[C@H](C)NC(=O)[C@H](CCC(N)=O)NC(=O)CNC(=O)[C@H](CCC(=O)O)NC(=O)[C@H](CC(C)C)NC(=O)[C@H](Cc1ccc(O)cc1)NC(=O)[C@H](CO)NC(=O)[C@H](CO)NC(=O)[C@@H](NC(=O)[C@H](CC(=O)O)NC(=O)[C@H](CO)NC(=O)[C@@H](NC(=O)[C@H](Cc1ccccc1)NC(=O)[C@@H](NC(=O)CNC(=O)[C@H](CCC(=O)O)NC(=O)[C@H](C)NC(=O)[C@H](Cc1c[nH]cn1)NC(=O)[C@H](CCCNC(=N)N)NC(=O)[C@H](CCC(=O)O)NC(=O)[C@H](Cc1ccccc1)NC(=O)[C@H](CCC(=O)O)NC(=O)[C@H](CC(=O)O)NC(=O)[C@@H](N)Cc1c[nH]cn1)[C@@H](C)O)[C@@H](C)O)C(C)C)C(=O)N[C@@H](C)C(=O)N[C@@H](Cc1c[nH]c2ccccc12)C(=O)N[C@@H](CC(C)C)C(=O)N[C@H](C(=O)N[C@@H](CCCCN)C(=O)NCC(=O)N[C@@H](CCCNC(=N)N)C(=O)NCC(=O)O)C(C)C [GLP-1] | – | 0.0% | 0.0% | 0.0% | 100% | 95.8% | 100%
